The nature of data set [1]: Metabolic stability in cryopreserved human hepatocytes assessed as unbound intrinsic clearance measured per 10^6 cells at 1 uM measured after 120 mins by LC-MS/MS analysis. In kind it is ADME, cell-based, Hepatocyte. The following applies: 2 h.
Data set [2] in a line: Cytotoxicity against human THP-1 cells assessed as reduction of cell viability incubated for 48 hrs by resazurin reduction assay. In kind it is toxicity, cell-based. A general note: Resazurin is reduced to fluorescent resorufin, in cell work by metabolically active cells.
The target in data set [3] is T1, A-type voltage-gated potassium channel KCND3 (Homo sapiens, UniProt Q9UK17).
T1 sequence (Q9UK17 whole entry): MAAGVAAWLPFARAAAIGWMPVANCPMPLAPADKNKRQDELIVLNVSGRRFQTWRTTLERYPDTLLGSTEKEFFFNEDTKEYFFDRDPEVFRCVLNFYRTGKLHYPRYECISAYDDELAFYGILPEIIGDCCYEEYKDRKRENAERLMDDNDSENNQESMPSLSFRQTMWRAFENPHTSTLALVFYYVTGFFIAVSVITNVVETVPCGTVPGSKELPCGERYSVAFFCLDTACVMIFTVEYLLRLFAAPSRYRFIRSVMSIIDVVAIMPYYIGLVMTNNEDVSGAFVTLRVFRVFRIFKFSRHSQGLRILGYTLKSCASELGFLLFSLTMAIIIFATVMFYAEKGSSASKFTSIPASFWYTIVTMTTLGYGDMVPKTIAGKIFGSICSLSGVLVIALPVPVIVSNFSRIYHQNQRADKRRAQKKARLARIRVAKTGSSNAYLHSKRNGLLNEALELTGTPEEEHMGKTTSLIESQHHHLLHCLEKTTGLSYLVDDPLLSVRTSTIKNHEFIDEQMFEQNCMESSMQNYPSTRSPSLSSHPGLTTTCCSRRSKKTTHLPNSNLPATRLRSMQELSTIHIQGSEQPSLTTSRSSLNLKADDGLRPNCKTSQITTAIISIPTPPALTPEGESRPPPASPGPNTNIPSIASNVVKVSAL
The data set can be described thus: Inhibition of human Kv4.3 by automated electrophysiology recording. It counts as toxicity.

For the next data set, the system named is IKs channel. The data set can be described thus: Inhibition of human IKS channel by automated electrophysiology recording. In kind it is toxicity.
The nature of data set [4]: Genotoxicity in human A549 upto 1000 uM by micronucleus test. It counts as toxicity, cell-based. The following applies: a549, 1000 µM.
The target in data set [5] is Lutropin-choriogonadotropic hormone receptor (Homo sapiens, UniProt P22888). The experiment in a line: Agonist activity at LSHR (unknown origin) by arrestin technology based assay. In kind it is functional.
Chain of Lutropin-choriogonadotropic hormone receptor (P22888 whole entry): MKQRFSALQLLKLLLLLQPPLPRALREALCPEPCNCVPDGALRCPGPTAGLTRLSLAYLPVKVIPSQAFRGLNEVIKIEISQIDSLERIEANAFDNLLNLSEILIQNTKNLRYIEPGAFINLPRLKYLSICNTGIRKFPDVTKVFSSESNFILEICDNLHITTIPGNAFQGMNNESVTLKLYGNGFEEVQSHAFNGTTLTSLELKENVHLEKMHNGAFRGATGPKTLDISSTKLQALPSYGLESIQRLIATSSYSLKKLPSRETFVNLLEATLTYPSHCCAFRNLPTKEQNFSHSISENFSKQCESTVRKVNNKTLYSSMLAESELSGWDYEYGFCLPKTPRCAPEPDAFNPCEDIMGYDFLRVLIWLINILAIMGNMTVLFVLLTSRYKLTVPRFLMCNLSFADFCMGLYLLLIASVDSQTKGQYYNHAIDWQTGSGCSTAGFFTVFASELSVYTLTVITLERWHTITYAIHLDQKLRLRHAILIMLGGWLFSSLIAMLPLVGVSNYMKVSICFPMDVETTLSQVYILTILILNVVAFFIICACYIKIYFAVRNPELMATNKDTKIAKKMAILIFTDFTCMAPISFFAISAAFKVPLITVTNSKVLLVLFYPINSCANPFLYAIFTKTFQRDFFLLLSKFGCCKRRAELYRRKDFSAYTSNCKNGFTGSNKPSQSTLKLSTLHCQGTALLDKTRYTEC
Data set [6] in a line: Protein binding in rat plasma assessed as free fraction at 5 uM incubated for 18 hrs by equilibrium dialysis based LC-MS/MS analysis. It counts as ADME, cell-free. (In general: In equilibrium dialysis only unbound substance equilibrates across the membrane.)
A short description of data set [7]: Metabolic stability in Han Wistar rat hepatocytes assessed as intrinsic clearance measured per 10^6 cells at 1 uM after 120 mins by LC-MS/MS analysis. In kind it is ADME, cell-based, Hepatocyte. The following applies: read-out: CLH.
Data set [8] is described as follows: Volume of distribution at steady state in Han Wistar rat at 0.73 micromol/kg, iv by LC-MS/MS analysis. It counts as ADME, organism-based. The following applies: in vivo, dose 0.73 µmol/kg, read-out: Vdss.
Data set [9] in a line: Clearance in Han Wistar rat at 0.73 micromol/kg, iv by LC-MS/MS analysis. It counts as ADME, organism-based. The following applies: in vivo, dose 0.73 µmol/kg.
Data set [10] addresses T2, Relaxin receptor 1 (Rattus norvegicus) (UniProt Q6R6I6).
T2 sequence (whole entry): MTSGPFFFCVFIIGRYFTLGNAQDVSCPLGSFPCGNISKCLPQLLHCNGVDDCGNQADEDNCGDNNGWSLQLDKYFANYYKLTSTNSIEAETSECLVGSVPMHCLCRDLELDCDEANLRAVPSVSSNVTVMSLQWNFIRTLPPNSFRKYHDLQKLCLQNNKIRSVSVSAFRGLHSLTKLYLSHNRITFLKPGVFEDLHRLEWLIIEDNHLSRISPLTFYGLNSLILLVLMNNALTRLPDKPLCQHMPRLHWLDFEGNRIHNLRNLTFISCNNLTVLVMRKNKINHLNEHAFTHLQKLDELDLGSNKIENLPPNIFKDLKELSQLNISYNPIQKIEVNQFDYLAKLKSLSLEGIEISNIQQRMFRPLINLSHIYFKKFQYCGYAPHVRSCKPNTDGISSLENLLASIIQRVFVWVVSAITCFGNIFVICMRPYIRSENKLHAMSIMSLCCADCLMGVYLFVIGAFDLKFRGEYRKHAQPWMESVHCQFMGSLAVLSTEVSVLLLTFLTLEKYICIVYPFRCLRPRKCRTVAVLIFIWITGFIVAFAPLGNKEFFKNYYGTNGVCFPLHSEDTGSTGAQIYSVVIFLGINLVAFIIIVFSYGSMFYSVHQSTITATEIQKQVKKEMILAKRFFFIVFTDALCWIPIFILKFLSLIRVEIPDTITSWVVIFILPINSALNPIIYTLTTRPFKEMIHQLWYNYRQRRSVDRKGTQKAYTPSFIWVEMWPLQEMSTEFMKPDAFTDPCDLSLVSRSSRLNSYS
The experiment in a line: In vivo agonist activity at RXFP1 in Sprague-Dawley rat assessed as hemodynamic effect by measuring increase in heart rate at 1.5 mg/kg, iv administered via bolus followed by 9.0 mg/kg, iv administered via infusion for 3 hrs and measured 1 hrs post washout. In kind it is functional, organism-based.

Data set [11] is described as follows: Cytotoxicity against human HepG2 cells cultured under galactose condition assessed as reduction in cell viability. It counts as toxicity, cell-based.

Structures are written as SMILES. Activity calls are given as the source filed them. The rule behind the calls is not given here.

The IC50 is the concentration needed to halve the response being measured. The term EC50 denotes the concentration at which the effect is half-maximal. Higher therefore signals a need for much substance. In general, fraction unbound refers to free concentration divided by total concentration. For orientation: clearance means the volume of plasma or blood freed of the substance per unit of time. A higher clearance goes with a high capacity for elimination. As to `COc1cc(F)c(O[C@H]2CC[C@@](C)(C(=O)O)CC2)cc1C(=O)N[C@@H]1[C@H]2CC[C@H](C2)[C@@H]1C(=O)Nc1ccc(F)c(S(F)(F)(F)(F)F)c1`, the CL free in data set [1] was 2.1 µL/min. For the same molecule, in data set [2], the IC50 at 48 h was found to be 15 µM. Moreover, the IC50 in data set [3] is above 33 µM; in the data set with IKs channel, above 33 µM; in data set [11], 37 µM. In [4], the Activity result is “Non-Toxic”. Moreover, in data set [5], the EC50 turned out to be 46 µM. Further, the fraction unbound at 18 h, 5 µM in data set [6] amounted to 0.0015. Moreover, the hepatocyte CLint at 1 µM in [7] was 24 µL/min/1e6 cells. Also, the Vd in [8] was found to be 2.3 L/kg. In data set [9], this molecule had a clearance of 38 mL/min/kg. The result in [10] was Active.

The values are drawn from ChEMBL document CHEMBL5518235, “Identification of Novel Series of Potent and Selective Relaxin Family Peptide Receptor 1 (RXFP1) Agonists” (J Med Chem, 2024).
